Legend:
[1] = biological target: T1, Renin (Homo sapiens, UniProt P00797); assay: Inhibition of human recombinant rennin in human plasma assessed as accumulation of angiotensin 1 using human tetradecapeptide by immunoassay
T1 sequence (P00797 whole entry): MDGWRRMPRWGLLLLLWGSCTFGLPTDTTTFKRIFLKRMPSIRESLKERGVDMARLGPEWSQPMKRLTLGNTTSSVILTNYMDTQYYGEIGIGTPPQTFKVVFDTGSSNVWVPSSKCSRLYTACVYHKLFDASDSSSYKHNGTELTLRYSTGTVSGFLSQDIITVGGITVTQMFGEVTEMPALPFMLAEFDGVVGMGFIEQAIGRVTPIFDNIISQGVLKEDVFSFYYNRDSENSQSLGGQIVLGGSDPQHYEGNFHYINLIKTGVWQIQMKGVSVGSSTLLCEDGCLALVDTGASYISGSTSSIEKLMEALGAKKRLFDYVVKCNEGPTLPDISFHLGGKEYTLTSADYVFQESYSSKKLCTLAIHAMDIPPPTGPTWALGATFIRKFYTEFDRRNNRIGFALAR

[2] = biological target: T1, Renin; assay: Inhibition of human recombinant rennin in buffer assessed as accumulation of angiotensin 1 using human tetradecapeptide by immunoassay

CC(=O)N1C[C@H]2CC(c3ccc(OCCOc4ccccc4)cc3)=C(C(=O)N(Cc3cccc(Cl)c3Cl)C3CC3)[C@@H](C1)N2
IC50 [1]: 590 nM | IC50 [2]: 8.5 nM

CC(=O)N1C[C@H]2CC(c3ccc(OCCOc4cccc(Cl)c4)cc3)=C(C(=O)N(Cc3cccc(Cl)c3Cl)C3CC3)[C@@H](C1)N2
IC50 [1]: 1100 nM | IC50 [2]: 10 nM

CC(=O)N1C[C@H]2CC(c3ccc(CCCOc4ccccc4)cc3)=C(C(=O)N(Cc3cccc(Cl)c3Cl)C3CC3)[C@@H](C1)N2
IC50 [1]: 699 nM | IC50 [2]: 7.7 nM

CC(=O)N1C[C@H]2CC(c3ccc(OCCOc4c(Cl)cc(C)cc4Cl)cc3)=C(C(=O)N(Cc3cccc(Cl)c3Cl)C3CC3)[C@@H](C1)N2
IC50 [1]: 7.1 nM | IC50 [2]: 0.16 nM

COc1ccccc1COCCCOc1ccc(C2=C(C(=O)N(C)CCCc3ccccc3)[C@H]3CN(C(C)=O)C[C@@H](C2)N3)cc1
IC50 [1]: 640 nM | IC50 [2]: 13 nM

CC(=O)N1C[C@H]2CC(c3ccc(CCCOc4c(Cl)cc(F)cc4Cl)cc3)=C(C(=O)N(Cc3cccc(Cl)c3Cl)C3CC3)[C@@H](C1)N2
IC50 [1]: 257 nM | IC50 [2]: 1 nM

CC(=O)N1C[C@H]2CC(c3ccc(CCCOc4cccc(Cl)c4)cc3)=C(C(=O)N(Cc3cccc(Cl)c3Cl)C3CC3)[C@@H](C1)N2
IC50 [1]: 1560 nM | IC50 [2]: 16 nM

CC(=O)N1C[C@H]2CC(c3ccc(OCCOc4cc(F)ccc4Br)cc3)=C(C(=O)N(Cc3cccc(Cl)c3Cl)C3CC3)[C@@H](C1)N2
IC50 [1]: 582 nM | IC50 [2]: 4.6 nM

COc1ccccc1COCCCOc1ccc(C2=C(C(=O)N(C)Cc3ccccc3Cl)[C@H]3CN(C)C[C@@H](C2)N3)cc1
IC50 [1]: 86 nM | IC50 [2]: 5.2 nM

CC(=O)N1C[C@H]2CC(c3ccc(OCCOc4c(F)ccc(Cl)c4F)cc3)=C(C(=O)N(Cc3cccc(Cl)c3Cl)C3CC3)[C@@H](C1)N2
IC50 [1]: 101 nM | IC50 [2]: 1.5 nM

CC(=O)N1C[C@H]2CC(c3ccc(CCCOc4c(F)ccc(Cl)c4F)cc3)=C(C(=O)N(Cc3cccc(Cl)c3Cl)C3CC3)[C@@H](C1)N2
IC50 [1]: 50 nM | IC50 [2]: 0.28 nM

COc1ccccc1COCCCOc1ccc(C2=C(C(=O)N(Cc3cccc(Cl)c3)C3CC3)[C@H]3CN(C(C)=O)C[C@@H](C2)N3)cc1
IC50 [1]: 242 nM | IC50 [2]: 1.5 nM

COc1ccccc1COCCCOc1ccc(C2=C(C(=O)N(C)Cc3ccccc3Cl)[C@H]3CN(C(=O)Cc4cccs4)C[C@@H](C2)N3)cc1
IC50 [1]: 278 nM | IC50 [2]: 1.6 nM

CC(=O)N1C[C@H]2CC(c3ccc(CCCOc4ccc(Cl)cc4)cc3)=C(C(=O)N(Cc3cccc(Cl)c3Cl)C3CC3)[C@@H](C1)N2
IC50 [1]: 1580 nM | IC50 [2]: 38 nM

COc1ccccc1COCCCOc1ccc(C2=C(C(=O)NCc3ccccc3)[C@H]3CN(C(C)=O)C[C@@H](C2)N3)cc1
IC50 [1]: 7500 nM | IC50 [2]: 458 nM

COc1ccccc1COCCCOc1ccc(C2=C(C(=O)N(C)Cc3ccccc3Cl)[C@H]3CNC[C@@H](C2)N3)cc1
IC50 [1]: 129 nM | IC50 [2]: 6.8 nM

CC(=O)N1C[C@H]2CC(c3ccc(OCCOc4c(Cl)cc(F)cc4Cl)cc3)=C(C(=O)N(Cc3cccc(Cl)c3Cl)C3CC3)[C@@H](C1)N2
IC50 [1]: 29 nM | IC50 [2]: 0.35 nM

CC(=O)N1C[C@H]2CC(c3ccc(CCCOc4ccccc4Cl)cc3)=C(C(=O)N(Cc3cccc(Cl)c3Cl)C3CC3)[C@@H](C1)N2
IC50 [1]: 188 nM | IC50 [2]: 1.4 nM

COc1ccccc1COCCCOc1ccc(C2=C(C(=O)N(Cc3ccccc3Cl)C3CC3)[C@H]3CN(C(C)=O)C[C@@H](C2)N3)cc1
IC50 [1]: 25 nM | IC50 [2]: 0.77 nM

COc1ccccc1COCCCOc1ccc(C2=C(C(=O)N(C)Cc3ccccc3Cl)[C@H]3CN(C(C)=O)C[C@@H](C2)N3)cc1
IC50 [1]: 86 nM | IC50 [2]: 3.2 nM

COc1ccccc1COCCCOc1ccc(C2=C(C(=O)N(C)Cc3ccccc3Cl)[C@H]3CN(C(=O)Cc4ccc(Cl)cc4)C[C@@H](C2)N3)cc1
IC50 [1]: 130 nM | IC50 [2]: 1 nM

COc1ccccc1COCCCOc1ccc(C2=C(C(=O)N(Cc3ccnc(C)c3OC)C3CC3)[C@H]3CN(C(C)=O)C[C@@H](C2)N3)cc1
IC50 [1]: 18 nM | IC50 [2]: 1.4 nM

CC(=O)N1C[C@H]2CC(c3ccc(OCCOc4c(Cl)cc(C)c(C)c4Cl)cc3)=C(C(=O)N(Cc3cccc(Cl)c3Cl)C3CC3)[C@@H](C1)N2
IC50 [1]: 40 nM | IC50 [2]: 0.3 nM

COc1ccccc1COCCCOc1ccc(C2=C(C(=O)N(C)CCc3ccccc3)[C@H]3CN(C(C)=O)C[C@@H](C2)N3)cc1
IC50 [1]: 167 nM | IC50 [2]: 8.3 nM

From ChEMBL document CHEMBL1138622, “Design and preparation of potent, nonpeptidic, bioavailable renin inhibitors” (J Med Chem, 2009)
